pEC50: −log10 of the molar value.
Tested on: PBMCs infected with VSV-G pseudotyped HIV virus stock (VSV-G/pNLG1-P2A-AEnv)
Experiment: cells
Type: cell-based
Conditions: Human immunodeficiency virus 1, PBMC, read-out: TACK EC50

| Compound | pEC50 |
| --- | --- |
| N[C@H](C(=O)N1Cc2ccccc2C1)[C@H]1CC[C@H](N2CCCC2)CC1 [Example 1, (2S)-2-amino-1-(1,3-dihydroisoindol-2-yl)-2-[(1R,4S)-4-(pyrrolidin-1-yl)cyclohexyl]ethanone] | 6.68 |
| N[C@H](C(=O)N1Cc2ccccc2C1)[C@H]1CC[C@@H](O)CC1 [Example 2] | 5.19 |
| N[C@H](C(=O)N1Cc2ccccc2C1)C1CCCCC1 [Example 3] | 5.85 |
| N#C[C@@H]1C[C@H](F)CN1C(=O)[C@@H](N)C1CCCCC1 [Example 4] | 6.50 |
| C#CCOCCO[C@H]1CCN(C2CCC([C@H](N)C(=O)N3Cc4ccccc4C3)CC2)C1 (stereo partly drawn) [Example 5] | 6.27 |
| C#CCO[C@H]1CCN(C2CCC([C@H](N)C(=O)N3Cc4ccccc4C3)CC2)C1 (stereo partly drawn) [Example 6] | 6.64 |

Reference: patent publication US12310945B2, “Cyclohexylglycine derivatives as selective cytotoxic agents” (Merck Sharp & Dohme LLC, priority 2022, dated 2025)
